The numbers were not newly measured in publication PMC8696521 (RSC Advances, 2021), which cites them from elsewhere.

Where two headings read alike, the source gives them in different places.

Series [1] relates to ACE. The conditions noted are these: for Category of ACEI peptide by interaction with ACE: reduced IC50 values following incubation with ACE.
The conditions of series [2]: peptide from P. fucata muscle.

In the case of FHAPWK, the ACE inhibition pattern result in series [1] is “competitive inhibitors”.

With GAGLPGKRER, the Antioxidant activity result in series [2] is listed as “strong antioxidant activity”.

Consider GVGSPY, for which, in series [1] (from pearl oyster shell protein hydrolysate), the “ACEI IC50” value was 5.82 µg/mL.

Take IKPVA: in series [1], the “Category of ACEI peptide by interaction with ACE” value is “pro-drug substrates”.

In the case of IKPVQ, the “Category of ACEI peptide by interaction with ACE” value in series [1] was “pro-drug substrates”.

For orientation: IC50 means the concentration that gives 50% inhibition. As for LIVT, the IC50 in series [1] (read-out: ACEI IC50) is 110 nM.

As for LSGYGP, in series [1], the ACE inhibition pattern result is recorded as “noncompetitive”.

Consider VVSLSIPR, for which the ACE inhibition pattern result in series [1] is listed as “competitive inhibitors”.

In the case of WVYY, in series [1] (hemp seed protein hydrolysate peptides), the ACE inhibition pattern entry is listed as “mixed-mode type of ACE inhibition”.
